Assay: Dynamic vapor sorption (DVS) analysis
Assay type: physicochemical
Conditions: bulk material, a batch of Compound 1; FIG. 5

moisture uptake (DVS isotherms): low moisture uptake
Compound: CCOC(=O)c1cnc2[nH]ccc2c1N[C@@H]1CCCN(C(=O)CC#N)C1 [Compound 1, ethyl (R)-4-((1-(2-cyanoacetyl)piperidin-3-yl)amino)-1H-pyrrolo[2,3-b]pyridine-5-carboxylate]

Reference: patent US20230365555A1, “CRYSTALLINE POLYMORPH FORM A OF A JAK INHIBITORAND METHODS FOR ITS PREPARATION” (ACLARIS THERAPEUTICS, INC., priority 2020, published 2023)
